Molecules are shown by their SMILES.

This note sets out measurements from patent US20240199605A1, “SMALL MOLECULAR INHIBITORS OF NF-kB INDUCING KINASE” (Janssen Pharmaceutica NV, priority 2019, published 2024).

The test system of experiment [1] is p-IKKα levels in L363 (NIK translocated multiple myeloma) cells. Kind of experiment: Effect of compounds on p-IKKα levels in L363 cells (AlphaLISA SureFire Ultra). The format is cell-based, human. Particulars: Homo sapiens, L-363, 6 h, BAFF stimulated, MG132, 6 h, average of values, read-out: Assay 2 IC50. In outline:
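Inhibition of p-IKKα (Ser176/180) read by AlphaLISA after 6 h, 37 °C compound exposure (11-point 1:3 series, 0.3% DMSO) of L363 cells pre-incubated overnight ± 250 ng/ml BAFF and plated ± BAFF ± 10 μM MG132. Normalised to BAFF/MG132/DMSO and unstimulated controls; IC50 by sigmoidal fitting, duplicates.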
(In general: In Alpha technology, singlet oxygen from a donor bead excites a nearby acceptor bead.)

The target of experiment [2] is recombinant human NF-kappaB-inducing kinase (NIK/MAP3K14) (Homo sapiens (Human), UniProt Q99558). Kind of experiment: Inhibition of auto-phosphorylation of recombinant human NIK/MAP3K14 (AlphaScreen). The experiment is classed as biochemical. Particulars: NIK auto-phosphorylation, 5 μM ATP, 1 nM NIK, 2 h at 25° C.; average of values. In outline: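 AlphaScreen read-out (anti-phospho-IKK Ser176/180 antibody, Protein A acceptor and glutathione donor beads) of NIK auto-phosphorylation. Reaction: 1 nM enzyme, 5 μM ATP, Tris pH 7.5 buffer with Mg2+ and vanadate, 2 h at 25° C., final DMSO 0.7%. IC50 came from a sigmoidal curve fit.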
Chain of recombinant human NF-kappaB-inducing kinase (NIK/MAP3K14) (Q99558 whole entry): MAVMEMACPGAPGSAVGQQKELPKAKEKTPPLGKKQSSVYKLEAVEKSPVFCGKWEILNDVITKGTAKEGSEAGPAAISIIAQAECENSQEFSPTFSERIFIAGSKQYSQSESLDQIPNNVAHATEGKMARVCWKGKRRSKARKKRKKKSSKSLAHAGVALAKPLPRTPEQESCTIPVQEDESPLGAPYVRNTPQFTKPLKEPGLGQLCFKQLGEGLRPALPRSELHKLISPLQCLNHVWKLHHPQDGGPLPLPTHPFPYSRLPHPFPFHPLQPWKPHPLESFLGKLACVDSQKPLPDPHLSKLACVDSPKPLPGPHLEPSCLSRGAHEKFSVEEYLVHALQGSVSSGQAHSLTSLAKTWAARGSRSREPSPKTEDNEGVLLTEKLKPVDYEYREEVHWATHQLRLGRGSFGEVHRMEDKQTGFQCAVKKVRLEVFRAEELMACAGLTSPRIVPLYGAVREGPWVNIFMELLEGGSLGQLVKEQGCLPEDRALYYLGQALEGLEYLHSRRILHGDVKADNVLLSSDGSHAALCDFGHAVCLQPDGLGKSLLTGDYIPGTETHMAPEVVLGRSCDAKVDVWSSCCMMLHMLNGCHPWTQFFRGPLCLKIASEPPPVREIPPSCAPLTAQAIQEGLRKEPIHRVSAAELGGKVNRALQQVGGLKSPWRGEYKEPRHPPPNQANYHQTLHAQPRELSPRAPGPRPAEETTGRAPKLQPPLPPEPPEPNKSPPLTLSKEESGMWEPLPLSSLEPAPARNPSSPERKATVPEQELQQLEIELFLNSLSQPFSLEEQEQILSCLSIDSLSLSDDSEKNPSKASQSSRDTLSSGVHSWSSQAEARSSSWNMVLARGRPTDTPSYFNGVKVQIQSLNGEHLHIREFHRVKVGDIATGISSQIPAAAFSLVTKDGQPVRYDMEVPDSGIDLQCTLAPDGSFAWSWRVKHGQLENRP

Consider `CN1CC[C@@](O)(C#Cc2cccc(-c3ccc4ncnc(N5CCC5)c4c3)c2)C1=O` [Example 243, (R)-3-((3-(4-(Azetidin-1-yl)quinazolin-6-yl)phenyl)ethynyl)-3-hydroxy-1-methylpyrrolidin-2-one], for which the IC50 was determined as 670 nM in experiment [1] and 14 nM in experiment [2].

For `CN1CC[C@@](O)(C#Cc2cccc(-c3ccc4ncnc(N5CC(Cl)C5)c4n3)c2)C1=O` [Example 244, (R)-3-((3-(4-(3-Chloroazetidin-1-yl)pyrido[3,2-d]pyrimidin-6-yl)phenyl)ethynyl)-3-hydroxy-1-methylpyrrolidin-2-one], the IC50 in experiment [1] is 240 nM; in experiment [2], 4.9 nM.

On to `CN1CC[C@@](O)(C#Cc2cccc(-c3ccc4ncnc(N5CC(S(C)(=O)=O)C5)c4n3)c2)C1=O` [Example 245, (R)-3-Hydroxy-1-methyl-3-((3-(4-(3-(methylsulfonyl)azetidin-1-yl)pyrido[3,2-d]pyrimidin-6-yl)phenyl)ethynyl)pyrrolidin-2-one], for which the IC50 in experiment [1] was 1190 nM; in experiment [2], 40 nM.

For the compound `CNC(=O)C1CN(c2ncnc3ccc(-c4cccc(C#C[C@]5(O)CCN(C)C5=O)c4)nc23)C1` [Example 246, (R)-1-(6-(3-((3-Hydroxy-1-methyl-2-oxopyrrolidin-3-yl)ethynyl)phenyl)pyrido[3,2-d]pyrimidin-4-yl)-N-methylazetidine-3-carboxamide], the IC50 in experiment [1] was determined as 3790 nM; in experiment [2], 23 nM.

For the compound `CN1CC[C@@](O)(C#Cc2cccc(-c3ncc4ccnc(N5CCC5)c4n3)c2)C1=O` [Example 247, (R)-3-((3-(8-(Azetidin-1-yl)pyrido[3,4-d]pyrimidin-2-yl)phenyl)ethynyl)-3-hydroxy-1-methylpyrrolidin-2-one], the half-inhibitory concentration (IC50) in experiment [1] is greater than 5000 nM; in experiment [2], 850 nM.

Consider `Cc1ncc(Br)c2ccc(-c3cccc(C#C[C@]4(O)CCN(C)C4=O)c3)nc12` [Example 249, (R)-3-((3-(5-Bromo-8-methyl-1,7-naphthyridin-2-yl)phenyl)ethynyl)-3-hydroxy-1-methylpyrrolidin-2-one], for which the half-maximal inhibitory concentration (IC50) in experiment [1] amounted to 470 nM; in experiment [2] it was 7.3 nM.

`Cc1cc(-c2cccc(C#C[C@]3(O)CCN(C)C3=O)c2)nc2c(C)ncnc12` [Example 250, (R)-3-((3-(4,8-Dimethylpyrido[3,2-d]pyrimidin-6-yl)phenyl)ethynyl)-3-hydroxy-1-methylpyrrolidin-2-one]: the 50% inhibitory concentration (IC50) in experiment [1] amounted to 130 nM; in experiment [2], 7.9 nM.

`Cc1ncc(C#N)c2ccc(-c3cccc(C#C[C@]4(O)CCN(C)C4=O)c3)nc12` [Example 251, (R)-2-(3-((3-Hydroxy-1-methyl-2-oxopyrrolidin-3-yl)ethynyl)phenyl)-8-methyl-1,7-naphthyridine-5-carbonitrile]: the results for the IC50 in experiment [1] and in experiment [2] were 560 nM and 86 nM, respectively.

In the case of `Cc1cnc(C)c2nc(-c3cccc(C#C[C@]4(O)CCN(C)C4=O)c3)ccc12` [Example 252, (R)-3-((3-(5,8-Dimethyl-1,7-naphthyridin-2-yl)phenyl)ethynyl)-3-hydroxy-1-methylpyrrolidin-2-one], the IC50 was greater than 2000 nM in experiment [1] and 31 nM in experiment [2].

Turning to `CN1CC[C@@](O)(C#Cc2cccc(-c3cc(Br)c4ncnc(N)c4n3)c2)C1=O` [Example 253, (R)-3-((3-(4-Amino-8-bromopyrido[3,2-d]pyrimidin-6-yl)phenyl)ethynyl)-3-hydroxy-1-methylpyrrolidin-2-one], the half-inhibitory concentration (IC50) came out at 5.1 nM in experiment [1] and 0.4 nM in experiment [2].

With `CN1CC[C@](O)(C#Cc2cccc(-c3cc(Br)c4ncnc(N)c4n3)c2)C1=O` [Example 254, (S)-3-((3-(4-Amino-8-bromopyrido[3,2-d]pyrimidin-6-yl)phenyl)ethynyl)-3-hydroxy-1-methylpyrrolidin-2-one], the half-maximal inhibitory concentration (IC50) is 1330 nM in experiment [1] and 230 nM in experiment [2].

Turning to `CN1CC[C@@](O)(C#Cc2cccc(-c3cc(C4CCOCC4)c4ncnc(N)c4n3)c2)C1=O` [Example 255, (R)-3-((3-(4-Amino-8-(tetrahydro-2H-pyran-4-yl)pyrido[3,2-d]pyrimidin-6-yl)phenyl)ethynyl)-3-hydroxy-1-methylpyrrolidin-2-one], the IC50 in experiment [1] was found to be 15 nM; in experiment [2], 0.7 nM.

With `CN1CC[C@](O)(C#Cc2cccc(-c3cc(C4CCOCC4)c4ncnc(N)c4n3)c2)C1=O` [Example 256, (S)-3-((3-(4-Amino-8-(tetrahydro-2H-pyran-4-yl)pyrido[3,2-d]pyrimidin-6-yl)phenyl)ethynyl)-3-hydroxy-1-methylpyrrolidin-2-one], the IC50 in experiment [1] turned out to be 4150 nM; in experiment [2], 350 nM.

Turning to `CN1CC[C@@](O)(C#Cc2cccc(-c3ccc4ncnc(-c5ccccc5)c4n3)c2)C1=O` [Example 257, (R)-3-Hydroxy-1-methyl-3-((3-(4-phenylpyrido[3,2-d]pyrimidin-6-yl)phenyl)ethynyl)pyrrolidin-2-one], the half-inhibitory concentration (IC50) stood at 2460 nM in experiment [1] and 44 nM in experiment [2].

On to `CC(=O)Nc1nc(C)nc2ccc(-c3cccc(C#C[C@]4(O)CCN(C)C4=O)c3)nc12` [Example 258, (R)—N-(6-(3-((3-Hydroxy-1-methyl-2-oxopyrrolidin-3-yl)ethynyl)phenyl)-2-methylpyrido[3,2-d]pyrimidin-4-yl)acetamide], for which the IC50 in experiment [1] stood at 450 nM; in experiment [2], 210 nM.

As for `Cc1ccc(C#C[C@@]2(O)CCN(C)C2=O)cc1-c1ccc2ncnc(N)c2n1` [Example 260, (S)-3-((3-(4-Aminopyrido[3,2-d]pyrimidin-6-yl)-4-methylphenyl)ethynyl)-3-hydroxy-1-methylpyrrolidin-2-one], the IC50 in experiment [1] amounted to 2740 nM; in experiment [2], 110 nM.

With `Cc1nc(N)c2nc(-c3cccc(C#C[C@]4(O)C[C@@H](C)N(C)C4=O)c3)ccc2n1` [Example 265, (3R,5R)-3-((3-(4-Amino-2-methylpyrido[3,2-d]pyrimidin-6-yl)phenyl)ethynyl)-3-hydroxy-1,5-dimethylpyrrolidin-2-one], the IC50 in experiment [1] came to 28 nM; in experiment [2], 1.9 nM.

For the compound `Cc1nc(N)c2nc(-c3cccc(C#C[C@@]4(O)C[C@H](C)N(C)C4=O)c3)ccc2n1` [Example 266, (3S,5S)-3-((3-(4-Amino-2-methylpyrido[3,2-d]pyrimidin-6-yl)phenyl)ethynyl)-3-hydroxy-1,5-dimethylpyrrolidin-2-one], the IC50 in experiment [1] is 3700 nM; in experiment [2], 680 nM.

Take `Cc1nc(N)c2nc(-c3cccc(C#C[C@@]4(O)C[C@@H](C)N(C)C4=O)c3)ccc2n1` [Example 267, (3S,5R)-3-((3-(4-Amino-2-methylpyrido[3,2-d]pyrimidin-6-yl)phenyl)ethynyl)-3-hydroxy-1,5-dimethylpyrrolidin-2-one]: the figures for the IC50 in experiment [1] and in experiment [2] were 2820 nM and 385 nM, respectively.

Consider `Cc1nc(N)c2nc(-c3cccc(C#C[C@]4(O)C[C@H](C)N(C)C4=O)c3)ccc2n1` [Example 268, (3R,5S)-3-((3-(4-Amino-2-methylpyrido[3,2-d]pyrimidin-6-yl)phenyl)ethynyl)-3-hydroxy-1,5-dimethylpyrrolidin-2-one], for which the concentration for half-maximal inhibition (IC50) turned out to be 585 nM in experiment [1] and 65 nM in experiment [2].

On to `CN1CC[C@@](O)(C#Cc2cccc(-c3ccc4ncnc(C5CC5)c4n3)c2)C1=O` [Example 270, (R)-3-((3-(4-Cyclopropylpyrido[3,2-d]pyrimidin-6-yl)phenyl)ethynyl)-3-hydroxy-1-methylpyrrolidin-2-one], for which the IC50 in experiment [1] came out at 1000 nM; in experiment [2] it was 26 nM.

`CN1CC[C@@](O)(C#Cc2ccc(OC(F)(F)F)c(-c3ccc4ncnc(N)c4n3)c2)C1=O` [Example 271, (R)-3-((3-(4-Aminopyrido[3,2-d]pyrimidin-6-yl)-4-(trifluoromethoxy)phenyl)ethynyl)-3-hydroxy-1-methylpyrrolidin-2-one]: the IC50 in experiment [1] came to 44 nM; in experiment [2], 4.2 nM.

As for `CC(C)c1ncnc2ccc(-c3cccc(C#C[C@]4(O)CCN(C)C4=O)c3)nc12` [Example 272, (R)-3-Hydroxy-3-((3-(4-isopropylpyrido[3,2-d]pyrimidin-6-yl)phenyl)ethynyl)-1-methylpyrrolidin-2-one], the figures for the IC50 in experiment [1] and in experiment [2] were 1960 nM and 59 nM, respectively.

`Cc1nc(N)c2nc(-c3cccc(C#C[C@@]4(O)C(=O)N(C)[C@@H]5C[C@@H]54)c3)ccc2n1` [Example 273, (1R,4R,5S)-4-((3-(4-Amino-2-methylpyrido[3,2-d]pyrimidin-6-yl)phenyl)ethynyl)-4-hydroxy-2-methyl-2-azabicyclo[3.1.0]hexan-3-one]: the IC50 amounted to 27 nM in experiment [1] and 2.7 nM in experiment [2].

Take `Cc1nc(N)c2nc(-c3cccc(C#C[C@]4(O)C(=O)N(C)[C@H]5C[C@H]54)c3)ccc2n1` [Example 274, (1S,4S,5R)-4-((3-(4-Amino-2-methylpyrido[3,2-d]pyrimidin-6-yl)phenyl)ethynyl)-4-hydroxy-2-methyl-2-azabicyclo[3.1.0]hexan-3-one]: the IC50 in experiment [1] was greater than 5000 nM; in experiment [2] it was 1930 nM.

As for `[2H]c1nc(N)c2nc(-c3cccc(C#C[C@]4(O)C(=O)N(C)[C@H]5C[C@H]54)c3)ccc2n1` [Example 275, (1S,4S,5R)-4-((3-(4-Aminopyrido[3,2-d]pyrimidin-6-yl-2-d)phenyl)ethynyl)-4-hydroxy-2-methyl-2-azabicyclo[3.1.0]hexan-3-one], the half-inhibitory concentration (IC50) is greater than 5000 nM in experiment [1] and 300 nM in experiment [2].

Broadly, the IC50 is the concentration that inhibits the measured activity by half.
